According to ChEMBL document CHEMBL2331245, “Aza-BODIPY: improved synthesis and interaction with soluble Aβ1-42 oligomers” (Bioorg Med Chem Lett, 2013):
The source made the active and inactive calls. The calls are words filed in the database; no cut-off is given here.

What was measured:
[1] = molecular target: Amyloid-beta precursor protein (Homo sapiens) (UniProt P05067); assay: Binding affinity to unordered beta sheet of amyloid beta (1 to 42) (unknown origin) assessed as fluorescence enhancement at 0.5 uM by fluorescence spectra analysis relative to control
[2] = molecular target: Amyloid-beta precursor protein (Homo sapiens) (UniProt P05067); assay: Binding affinity to ordered beta sheet of amyloid beta (1 to 42) (unknown origin) assessed as fluorescence enhancement at 0.5 uM by fluorescence spectra analysis relative to control
[3] = molecular target: Amyloid-beta precursor protein (Homo sapiens) (UniProt P05067); assay: Binding affinity to ordered beta sheet of amyloid beta (1 to 42) (unknown origin) by circular dichroism spectroscopic analysis
[4] = molecular target: T1, Albumin (Bos taurus, UniProt P02769); assay: Binding affinity to beta-sheet rich bovine serum albumin at 2 uM by circular dichroism spectroscopic analysis; conditions: cattle, TDE = time-dependent effect
[5] = molecular target: Amyloid-beta precursor protein (Homo sapiens) (UniProt P05067); assay: Binding affinity to unordered beta sheet of amyloid beta (1 to 42) (unknown origin) by circular dichroism spectroscopic analysis
[6] = molecular target: T1, Albumin; assay: Binding affinity to bovine serum albumin at 2 uM by circular dichroism spectroscopic analysis relative to control relative to control; conditions: cattle
[7] = molecular target: T1, Albumin; assay: Binding affinity to bovine serum albumin at 2 uM by circular dichroism spectroscopic analysis relative to control; conditions: cattle
[8] = molecular target: T1, Albumin; assay: Binding affinity to bovine serum albumin at 2 uM by circular dichroism spectroscopic analysis; conditions: cattle, TDE = time-dependent effect

Sequence of Amyloid-beta precursor protein (Homo sapiens) (P05067 whole entry): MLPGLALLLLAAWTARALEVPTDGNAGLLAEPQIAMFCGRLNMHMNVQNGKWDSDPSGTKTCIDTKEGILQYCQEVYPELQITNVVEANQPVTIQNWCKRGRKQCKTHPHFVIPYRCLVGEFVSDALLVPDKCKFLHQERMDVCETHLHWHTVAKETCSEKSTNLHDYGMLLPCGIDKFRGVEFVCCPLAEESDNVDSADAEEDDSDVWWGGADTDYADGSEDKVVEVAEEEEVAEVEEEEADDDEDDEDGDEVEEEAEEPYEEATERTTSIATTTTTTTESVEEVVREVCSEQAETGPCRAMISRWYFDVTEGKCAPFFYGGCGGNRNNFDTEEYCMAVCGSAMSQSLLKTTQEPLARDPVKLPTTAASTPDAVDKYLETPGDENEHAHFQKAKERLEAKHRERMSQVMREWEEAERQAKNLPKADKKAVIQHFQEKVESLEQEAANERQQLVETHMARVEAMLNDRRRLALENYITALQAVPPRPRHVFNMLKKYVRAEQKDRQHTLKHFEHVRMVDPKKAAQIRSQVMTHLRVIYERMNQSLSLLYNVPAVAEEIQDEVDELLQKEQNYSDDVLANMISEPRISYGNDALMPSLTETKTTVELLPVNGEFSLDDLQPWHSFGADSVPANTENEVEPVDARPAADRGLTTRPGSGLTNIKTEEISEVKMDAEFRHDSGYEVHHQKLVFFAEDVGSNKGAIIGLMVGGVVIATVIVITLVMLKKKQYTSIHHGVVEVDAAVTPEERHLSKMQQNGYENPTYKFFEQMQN
T1 sequence (P02769 whole entry): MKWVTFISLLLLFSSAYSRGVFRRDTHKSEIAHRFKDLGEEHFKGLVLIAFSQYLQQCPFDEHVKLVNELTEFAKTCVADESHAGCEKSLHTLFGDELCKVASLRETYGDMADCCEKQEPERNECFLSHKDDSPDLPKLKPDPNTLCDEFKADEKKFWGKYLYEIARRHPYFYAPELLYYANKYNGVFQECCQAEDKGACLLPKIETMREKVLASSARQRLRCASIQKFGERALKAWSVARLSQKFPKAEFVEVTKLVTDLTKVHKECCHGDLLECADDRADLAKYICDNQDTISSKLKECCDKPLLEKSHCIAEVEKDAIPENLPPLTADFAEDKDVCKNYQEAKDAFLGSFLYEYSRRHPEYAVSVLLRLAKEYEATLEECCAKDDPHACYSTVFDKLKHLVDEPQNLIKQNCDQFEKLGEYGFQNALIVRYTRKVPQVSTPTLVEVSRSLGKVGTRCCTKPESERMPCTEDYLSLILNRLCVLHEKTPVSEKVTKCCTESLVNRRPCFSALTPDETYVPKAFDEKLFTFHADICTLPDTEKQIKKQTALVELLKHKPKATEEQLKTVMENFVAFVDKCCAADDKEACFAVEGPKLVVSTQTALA

F[B-]1(F)n2c(-c3ccccc3)cc(-c3ccccc3)c2N=C2C(c3ccccc3)=CC(c3ccccc3)=[N+]21
fold change (FC) [1]: 6
fold change (FC) [2]: 16
Activity [3]: Active
Activity [4]: tde
Activity [5]: Active
fold change (FC) [6]: 340
fold change (FC) [7]: 57
Activity [8]: tde
